How the values were obtained:
Details in all cases: oral 14 days
glutathione (GSH) = experiment: Glutathione level (Example 3); assay type: in vivo, rats
Protocol: (§1) Distilled water was provided ad libitum. […] Ltd (Bangalore, India).
(§2) 0.5% Carboxy Methyl Cellulose sodium was used as vehicle and the test item formulations were prepared daily. […] The last dose on day 14 was given 1 hour prior to testing.

dopamine (dopa) = experiment: Dopamine concentration (Example 3); assay type: in vivo, rats
Protocol: as §1, §2

[1] = tested on: male Swiss Albino Wistar rats; experiment: Walter Morris Maze test (Example 3); assay type: in vivo
Protocol: Distilled water was provided ad libitum. […] Ltd (Bangalore, India). […] The last dose on day 14 was given 1 hour prior to testing. The Walter Morris Maze test consisted of a circular pool in a room with geometric shapes on the wall serving as spatial cues. The pool, which is 70 cm in diameter and painted with black color, filled with 13 cm depth of 25±1° C. water. A platform (6 cm diameter) was placed into one quadrant of the pool and submerged 1 cm below the water surface. For the training, all rats were trained to locate the submerged platform in constant location. The training day consisted of four trials. […] The rat was allowed to remain on the platform for 15 seconds before being dried off and later was transferred to a holding cage.

acetylcholine (Ach) = experiment: Acetylcholine concentration (Example 3); assay type: in vivo, rats
Protocol: as §1, §2

SMILES	glutathione (GSH) level (glutathione (GSH); old rats) [µg/mL]	glutathione (GSH) level (glutathione (GSH); young rats) [µg/mL]	dopamine (dopa) concentration (dopamine (dopa); old rats) [ng/L]	dopamine (dopa) concentration (dopamine (dopa); young rats) [ng/L]	escape latency ([1]; old rats (16-month-old)) [s]	escape latency ([1]; young rats (8-week-old)) [s]	acetylcholine (Ach) concentration (acetylcholine (Ach); old rats) [U/mL]	acetylcholine (Ach) concentration (acetylcholine (Ach); young rats) [U/mL]
Cn1cnc2c1c(=O)[nH]c(=O)n2C [theobromine, reference compound]	24.53 ± 0.54	31.28 ± 0.78	503.03 ± 9.29	552.73 ± 10.42	42.33 ± 1.63	37.67 ± 2.07	56.67±1.32	64.28±0.88
Cn1c(=O)c2[nH]cnc2n(C)c1=O [theophylline, reference compound]	24.23 ± 0.63	29.78 ± 1.07	495.82 ± 10.86	543.78 ± 6.11	43.83 ± 1.47	38.00 ± 1.90	55.33±1.05	63.89±1.64
